From ChEMBL document CHEMBL6103589, “Synthesis and evaluation of novel ebselen derivatives as urease inhibitors for combating Helicobacter pylori infections” (Eur J Med Chem, 2025) come the findings set out here.

≈ marks a conversion by molar mass, not a printed value. Calls of active or inactive are those of the source. The calls are words filed in the database; no cut-off is given here.

The target of assay [1] is Urease subunit alpha/Urease subunit beta (Helicobacter pylori (strain ATCC 700392 / 26695) (Campylobacterpylori), UniProt P69996). Description: Inhibition of Helicobacter pylori ATCC 43504 urease preincubated for 75 mins followed by urea addition and measured after 30 mins by ELISA. It counts as protein-complex assay. (In an ELISA, binding on a coated surface is turned into a signal by an enzyme label.)

Assay [2] concerns Helicobacter pylori. Description: Antibacterial activity against Helicobacter pylori ATCC 43504 incubated for 24 hrs by broth dilution method. In kind it is functional. The conditions noted are these: dose 1-64 […]. A general note: Dilution methods test growth across graded concentrations, often in twofold steps.
Assay [3] concerns Helicobacter pylori. Description: Antibacterial activity against Helicobacter pylori ATCC 43504 assessed as inhibition of bacterial colonies at 32 ug/mL incubated for 24 hrs by broth dilution method. In kind it is functional, organism-based. The conditions noted are these: dose 32.0 µg/ml.

Usually IC50 stands for the concentration that gives 50% inhibition. Lower therefore signals greater potency in that assay. The MIC is the lowest concentration found to suppress growth. A higher MIC goes with a less susceptible organism.

Sequence of Urease subunit alpha/Urease subunit beta (P69996 whole entry): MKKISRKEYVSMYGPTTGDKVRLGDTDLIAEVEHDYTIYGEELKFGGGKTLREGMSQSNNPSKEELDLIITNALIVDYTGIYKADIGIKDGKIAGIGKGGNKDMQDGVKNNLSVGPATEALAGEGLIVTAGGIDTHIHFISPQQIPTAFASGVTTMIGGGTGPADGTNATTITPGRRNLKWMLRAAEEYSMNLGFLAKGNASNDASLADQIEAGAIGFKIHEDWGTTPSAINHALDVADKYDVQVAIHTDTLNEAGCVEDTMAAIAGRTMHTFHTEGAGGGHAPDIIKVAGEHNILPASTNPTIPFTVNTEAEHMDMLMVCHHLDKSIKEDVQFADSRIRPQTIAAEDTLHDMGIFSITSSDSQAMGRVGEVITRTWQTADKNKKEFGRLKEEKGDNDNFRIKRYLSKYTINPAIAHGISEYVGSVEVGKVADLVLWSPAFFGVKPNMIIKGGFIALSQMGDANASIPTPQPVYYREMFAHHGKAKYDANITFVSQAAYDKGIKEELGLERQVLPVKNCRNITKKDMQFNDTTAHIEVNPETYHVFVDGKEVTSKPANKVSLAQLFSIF
Sequence of Urease subunit alpha/Urease subunit beta (P14916 whole entry, further chain): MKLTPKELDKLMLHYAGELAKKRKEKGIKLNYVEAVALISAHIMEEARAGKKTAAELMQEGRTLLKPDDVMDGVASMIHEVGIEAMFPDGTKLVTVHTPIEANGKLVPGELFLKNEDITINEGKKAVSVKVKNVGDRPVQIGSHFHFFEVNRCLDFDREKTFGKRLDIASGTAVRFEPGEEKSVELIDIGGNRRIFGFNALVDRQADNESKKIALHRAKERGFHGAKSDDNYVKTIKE

Turning to `O=c1c2ccccc2[se]n1-c1ccc(OC(F)(F)F)cc1`, half-maximal inhibition in assay [1] (IC50) was put at 10600 nM.

For `COC(=O)c1ccc(-n2[se]c3ccccc3c2=O)cc1`, the IC50 in assay [1] came out at 5230 nM.

As to `O=C(Oc1n[se]c2ccccc12)c1ccccc1F`, it took 310 nM to reach half-maximal inhibition in assay [1] (IC50).

In assay [1], `O=c1c2ccccc2[se]n1-c1cccc(OC(F)(F)F)c1` gave an IC50 of 7230 nM.

Take `O=c1c2ccccc2[se]n1-c1cc(F)ccc1Cl`: half-maximal inhibition in assay [1] (IC50) required 1340 nM. Compared with the last compound, the IC50 is about 5.4-fold lower.

Regarding `O=C(c1cccc([N+](=O)[O-])c1)n1[se]c2ccccc2c1=O`, it took 1230 nM to reach half-maximal inhibition in assay [1] (IC50).

Regarding `COc1ccc(-n2[se]c3ccccc3c2=O)cc1`, it took 7580 nM to reach half-maximal inhibition in assay [1] (IC50).

For `CC(C)(C)c1ccc(-n2[se]c3ccccc3c2=O)cc1`, half-maximal inhibition in assay [1] (IC50) required 15100 nM.

On to `O=c1c2ccccc2[se]n1-c1cccc(Cl)c1`, for which the IC50 in assay [1] is 2760 nM.

Compound `O=C(c1cccc(F)c1F)n1[se]c2ccccc2c1=O` returned an IC50 in assay [1] of 1910 nM.

`O=c1c2ccccc2[se]n1-c1ccc(F)c(F)c1`: in assay [1], the midpoint of inhibition, the IC50, lay at 3550 nM.

As for `O=C(Oc1n[se]c2ccccc12)c1cc(F)ccc1F`, 860 nM corresponded to half-maximal inhibition in assay [1] (IC50).

With `COc1cccc(-n2[se]c3ccccc3c2=O)c1`, half-maximal inhibition in assay [1] (IC50) required 6660 nM. Compared with the last compound, the IC50 is about 7.7-fold higher.

Turning to `O=C(c1ccc(F)c(F)c1)n1[se]c2ccccc2c1=O`, the IC50 in assay [1] came to 3360 nM.

In the case of `COc1ccc(C(=O)n2[se]c3ccccc3c2=O)cc1`, half-maximal inhibition in assay [1] (IC50) was put at 1730 nM. This IC50 is about 1.9-fold lower than that of the compound before.

The compound `Cc1cccc(C(=O)n2[se]c3ccccc3c2=O)c1` yielded an IC50 in assay [1] of 5410 nM.

`O=C(c1ccc(F)c(F)c1F)n1[se]c2ccccc2c1=O`: in assay [1], the IC50 worked out at 3480 nM.

As for `Cc1ccc(C(=O)n2[se]c3ccccc3c2=O)cc1`, in assay [1], the IC50 came out at 3750 nM.

`O=C(c1ccc(F)cc1)n1[se]c2ccccc2c1=O` had an IC50 in assay [1] of 890 nM.

`O=C(c1cccc(Cl)c1)n1[se]c2ccccc2c1=O`: in assay [1], inhibition was half-maximal at 1310 nM (IC50).

For `O=c1c2ccccc2[se]n1-c1ccc(F)cc1`, the IC50 in assay [1] amounted to 2420 nM.

Turning to `N#Cc1cccc(-n2[se]c3ccccc3c2=O)c1`, half-maximal inhibition in assay [1] (IC50) was put at 1320 nM.

With `O=C(c1ccc(Cl)cc1)n1[se]c2ccccc2c1=O`, inhibition in assay [1] was half-maximal at 1930 nM (IC50).

Take `O=C(c1ccccc1F)n1[se]c2ccccc2c1=O`: in assay [1], the IC50 stood at 870 nM.

In assay [1], `O=C(c1cccc(Br)c1)n1[se]c2ccccc2c1=O` showed an IC50 of 820 nM. This IC50 and that of the compound before are within 1.5-fold of each other.

`O=C(Oc1n[se]c2ccccc12)c1ccc(F)cc1` showed a half-maximal inhibitory concentration (IC50) in assay [1] of 340 nM.

Turning to `O=C(Oc1n[se]c2ccccc12)c1ccc(F)cc1F`, the midpoint of inhibition in assay [1], the IC50, lay at 360 nM.

In the case of `COc1ccccc1C(=O)n1[se]c2ccccc2c1=O`, the IC50 in assay [1] stood at 1100 nM.

In the case of `O=c1c2ccccc2[se]n1-c1ccc(Cl)cc1`, in assay [1], the IC50 is 2520 nM.

`COc1cccc(C(=O)n2[se]c3ccccc3c2=O)c1` gave an IC50 in assay [1] of 1980 nM. The IC50 values of the last two compounds are within 1.5-fold of each other.

In assay [1], `O=C(c1cc(F)c(F)cc1F)n1[se]c2ccccc2c1=O` showed an IC50 of 3290 nM.

In the case of `O=c1c2ccccc2[se]n1-c1ccccc1` [EBSELEN], the IC50 in assay [1] amounted to 1510 nM. Besides, in the assay with Helicobacter pylori [2], the Activity result was “Dose-dependent-effect” and the lowest concentration to inhibit growth (MIC) was 32 µg/mL (≈ 117 µM). Also, the outcome with Helicobacter pylori [3] was Active.

With `O=C(Oc1n[se]c2ccccc12)c1ccc(F)c(F)c1F`, the IC50 in assay [1] is 1100 nM.

Take `Cc1ccccc1C(=O)n1[se]c2ccccc2c1=O`: the half-inhibitory concentration (IC50) in assay [1] was 3170 nM.

`Cc1cccc(-n2[se]c3ccccc3c2=O)c1` displayed an IC50 in assay [1] of 3190 nM.

In turn, `O=C(c1ccc(F)cc1F)n1[se]c2ccccc2c1=O` yielded an IC50 in assay [1] of 1990 nM. Against the preceding compound, the IC50 is about 1.6-fold lower.

`Cc1ccc(-n2[se]c3ccccc3c2=O)cc1C(F)(F)F` came in with an IC50 in assay [1] of 12100 nM.

In assay [1], `O=C(c1ccccc1Cl)n1[se]c2ccccc2c1=O` showed an IC50 of 1460 nM.

`O=C(c1ccccc1C(F)(F)F)n1[se]c2ccccc2c1=O` had an IC50 in assay [1] of 3990 nM. Compared with the last compound, the IC50 is about 2.7-fold higher.

In the case of `O=C(c1ccc(C(F)(F)F)cc1)n1[se]c2ccccc2c1=O`, the IC50 in assay [1] came out at 3540 nM.

For the compound `O=C(Oc1n[se]c2ccccc12)c1c(F)cccc1F`, 1120 nM corresponded to half-maximal inhibition in assay [1] (IC50). Against the preceding compound, the IC50 is about 3.2-fold lower.

With `O=C(c1c(F)cccc1F)n1[se]c2ccccc2c1=O`, in assay [1], the IC50 came out at 3620 nM. This IC50 lies about 3.2-fold higher than the previous one.

On to `O=c1c2ccccc2[se]n1-c1c(F)cccc1Cl`, for which, in assay [1], the IC50 turned out to be 1530 nM.

The compound `O=c1c2ccccc2[se]n1-c1ccc(C(F)(F)F)cc1F` yielded an IC50 in assay [1] of 5210 nM.

`O=C(c1ccccc1Br)n1[se]c2ccccc2c1=O` yielded an IC50 in assay [1] of 1500 nM. This IC50 is about 3.5-fold lower than that of the compound before.

In turn, `O=c1c2ccccc2[se]n1-c1ccccc1Cl` gave an IC50 in assay [1] of 1830 nM.

Consider `O=C(c1ccccc1[N+](=O)[O-])n1[se]c2ccccc2c1=O`, for which half-maximal inhibition in assay [1] (IC50) was put at 2650 nM.

Take `O=C(c1cc(F)ccc1F)n1[se]c2ccccc2c1=O`: the IC50 in assay [1] is 2980 nM.

As to `O=C(c1cccc(C(F)(F)F)c1)n1[se]c2ccccc2c1=O`, the IC50 in assay [1] is 1460 nM.

For the compound `O=C(Oc1n[se]c2ccccc12)c1cccc(F)c1F`, half-maximal inhibition in assay [1] (IC50) required 440 nM.

`O=C(c1ccc([N+](=O)[O-])cc1)n1[se]c2ccccc2c1=O` displayed a half-inhibitory concentration (IC50) in assay [1] of 1960 nM.

As for `O=C(c1cccc(F)c1)n1[se]c2ccccc2c1=O`, half-maximal inhibition in assay [1] (IC50) required 440 nM.

`O=C(c1ccc(Br)cc1)n1[se]c2ccccc2c1=O` displayed an IC50 in assay [1] of 940 nM.

The compound `COC(=O)c1cccc(-n2[se]c3ccccc3c2=O)c1` had an IC50 in assay [1] of 4660 nM. This IC50 lies about 5-fold higher than the previous one.

On to `O=c1c2ccccc2[se]n1-c1ccc(F)cc1Cl`, for which, in assay [1], it took 1560 nM to reach half-maximal inhibition (IC50). Against the preceding compound, the IC50 is about 3-fold lower.
